From patent US8426340B2, “Plant growth enhancement with combinations of PESA and plant growth regulators” (Valent BioSciences Corporation, priority 2009, dated 2013) come the findings set out here.

Structures can show the parent of a compound that is named as a salt.

Format in all cases: in vivo
Assay [1] relates to cotton. Description: Pouch assay, root length of cotton seedlings (ABA). The procedure:
(§1) Seeds were placed in germination pouches consisting of germination paper hydrated with sterile water that was an insert in a gas-permeable 16×14 cm plastic pouch (CYG Pouch; Mega International, St. Paul, Minn.). In these examples, in pouch solution evaluation, PESA sodium salt or other active ingredients were added to the sterile water in the pouch. The pouches were arranged in a completely randomized block design in growth racks and placed in 19-liter polycarbonate food storage containers (Rubbermaid Commercial Products, Winchester, Va.). The sealed containers were held in an upright growth cabinet maintained at 25° C. with a 12 hour light: 12 hour dark photoperiod. When Abscisic acid was assayed in pouch studies, the pouches were first filled with sterile water to promote germination. The sterile water solutions were replaced after germination (4 days) and replaced with solutions containing ABA. After 6 days, the containers were removed from the growth cabinet, and the lengths of the roots and shoot were measured.

The test system of the next assay is rice cv. Cheniere. Briefly: Pouch assay, root length of rice seedlings. As to conditions: for effect on root length of rice seedlings / effect on main root length of rice cv. Cheniere: pouch solution; for effect on main root length of rice cv. Cheniere: combination: 3, 10, or 30 mg/liter PESA with 1 or 10 mg/liter trinexapac-ethyl. The method, then:
as §1
In pouch solution evaluation, treatment with the gibberellin biosynthesis inhibitor trinexapac-ethyl on […].

Assay [2] relates to lettuce. Briefly: Lettuce seed treatment, germination under thermodormancy conditions. The conditions noted are these: 33° C. and continuous light. The method, then: (§2) Seed was sieved with a screen of mesh size appropriate to remove broken seeds and small trash. Cracked or otherwise damaged seeds were removed. The seed was well mixed, and 50 g samples were weighed into small plastic trays. Seed treatment slurries were made by adding measured amounts of PESA or its salts and other AIs to sufficient water to bring them up to a standard volume, typically 2 ml. A fungicide (Maxim XL; Syngenta Agricultural Products, Greensboro, N.C.), a polymeric binder (CF-Clear; Becker-Underwood, Ames, Iowa), and a colorant (Color Coat Red; Becker-Underwood, Ames, Iowa) were also included in the slurry at label rates. A small aliquot of this slurry was applied to the seed using a Hege 11 coater (Wintersteiger, Salt Lake City, Utah) with a six-inch bowl at a slurry rate of 30 ounces per 100 lbs of seed. The slurry was deposited drop-wise on the spinning disk atomizer using a syringe.
(§3) After treatment, each seed sample was placed in plastic trays and dried at a room temperature for 20 to 60 minutes. The samples were then placed in small plastic bags. […]
To test the effect of chemical application on thermodormancy, lettuce seed was treated with PESA salt (50 g/cwt), 6BA (1 g/cwt), or a combination of PESA salt and 6BA. Lettuce seed was then grown under conditions that promote thermodormancy (33° C. and continuous light) and final seedling germination was determined (Table 1).

The test system of assay [3] is lettuce. Briefly: Lettuce seed treatment, root growth. The conditions noted are these: 25° C. in darkness, 3 days. The procedure: as §2, §3
To test the effect of chemical application on root growth, lettuce seed was treated with PESA salt (50 g/cwt), 6BA (1 g/cwt), or a combination of PESA salt and 6BA. Treated lettuce seed was grown at 25° C. in darkness, and root lengths were determined after 3 days.

Assay [4] concerns cotton. Briefly: Pouch assay, root length of cotton seedlings (6BA). The conditions noted are these: for root length (cm) of cotton: 6BA 0 mg/liter. The method, then:
as §1

Setting [5] is: ACC alone 1, 10, or 100 mg/liter, combination: 3, 10, or 30 mg/liter PESA with 1, 10, or 100 mg/liter ACC, except 10 mg/liter PESA with 1 mg/liter ACC.
Where [6] appears, read: PESA salt 50 g/cwt, 6BA 1 g/cwt, alone or in combination.
[7] abbreviates: seed treatment 50 g/cwt PESA salt, 0 g/cwt 6BA.

Turning to `CC1=CC(=O)CC(C)(C)[C@@]1(O)/C=C/C(C)=C\C(=O)O` [ABA, abscisic acid], the “root length (cm) of cotton” value in the assay on cotton [1] (PESA salt 0 mg/liter, ABA 1 mg/liter) is 10.4 cm; in the assay on cotton [1] (PESA salt 0 mg/liter, ABA 10 mg/liter), 10.0 cm. Further, the “effect on root growth of cotton seedlings” value in the assay with cotton [1] (pouch solution, combination: PESA 3 or 10 mg/liter with ABA) is “inhibited root growth”.
For the molecule `NC1(C(=O)O)CC1` [ACC, 1-aminocyclopropane carboxylic acid, reference compound], the “root length (cm) of rice cv. Cheniere” value in the assay on rice cv. Cheniere (Table 4, PESA salt 0 mg/liter, ACC 1 mg/liter) worked out at 8.8 cm; in the assay on rice cv. Cheniere (Table 4, PESA salt 0 mg/liter, ACC 10 mg/liter), 7.8 cm; in the assay on rice cv. Cheniere (Table 4, PESA salt 0 mg/liter, ACC 100 mg/liter) it was 4.3 cm. In addition, in the assay with rice cv. Cheniere (setting [5]), the “effect on root length of rice seedlings” value is recorded as “reduced root length”.
`O=C(O)CCC(=O)NCCc1ccccc1` [PESA salt, N-(2-phenylethyl)succinamic acid]: the “effect on lettuce germination” value in the assay with lettuce [2] (setting [6]) was “no effect”. The “Germination (%)” value with lettuce [2] (setting [7]) was determined as 14.9%. The “root length (cm) of rice cv. Cheniere” value with rice cv. Cheniere (Table 3, PESA salt 3 mg/liter, trinexapac-ethyl 0 mg/liter) amounted to 12.1 cm; in the assay with rice cv. Cheniere (Table 3, PESA salt 10 mg/liter, trinexapac-ethyl 0 mg/liter), 12.5 cm; in the assay with rice cv. Cheniere (Table 3, PESA salt 30 mg/liter, trinexapac-ethyl 0 mg/liter), 13.1 cm; in the assay with rice cv. Cheniere (Table 4, PESA salt 3 mg/liter, ACC 0 mg/liter), 9.7 cm; in the assay on rice cv. Cheniere (Table 4, PESA salt 10 mg/liter, ACC 0 mg/liter) it was 9.8 cm; with rice cv. Cheniere (Table 4, PESA salt 30 mg/liter, ACC 0 mg/liter) it was 9.4 cm. Also, the “root length (cm) of rice cv. Cheniere” value in the assay on rice cv. Cheniere (Table 5, PESA salt 3 mg/liter, AVG 0 mg/liter) was 11.4 cm; in the assay on rice cv. Cheniere (Table 5, PESA salt 30 mg/liter, AVG 0 mg/liter), 12.3 cm. Moreover, the “effect on root length of rice seedlings” value in the assay on rice cv. Cheniere (setting [5]) and in the assay with rice cv. Cheniere (PESA salt alone (AVG experiment)) was “increased root length” in each case. Besides, the “effect on main root length of rice cv. Cheniere” value in the assay with rice cv. Cheniere was “increased root length in a dose-dependent manner”. Also, the “effect on lettuce root growth” value with lettuce [3] (setting [6]) is “no effect on lettuce root growth”. In the assay with lettuce [3] (setting [7]), the “Root length (cm)” value is on record as 3.8 cm. For the same molecule, the “root length (cm) of cotton” value is reported as 11.9 cm in the assay with cotton [1] (PESA salt 3 mg/liter, ABA 0 mg/liter); 11.1 cm with cotton [1] (PESA salt 10 mg/liter, ABA 0 mg/liter); 9.8 cm in the assay with cotton [4] (PESA salt 3 mg/liter); 11.9 cm in the assay with cotton [4] (PESA salt 10 mg/liter); 13.0 cm in the assay on cotton [4] (PESA salt 30 mg/liter). The “effect on main root length of cotton seedlings” value in the assay on cotton [4] (pouch solution, combination: 10 or 30 mg/liter PESA with 1 or 10 mg/liter 6BA) is on record as “increased root length in a dose-dependent manner”.
Consider `CCOC(=O)C1CC(=O)C(=C(O)C2CC2)C(=O)C1` (centres unmarked) [trinexapac-ethyl, reference compound], for which the “root length (cm) of rice cv. Cheniere” value with rice cv. Cheniere (Table 3, PESA salt 0 mg/liter, trinexapac-ethyl 1 mg/liter) was determined as 10.9 cm; in the assay on rice cv. Cheniere (Table 3, PESA salt 0 mg/liter, trinexapac-ethyl 10 mg/liter) it was 9.9 cm; in the assay on rice cv. Cheniere (Table 3, PESA salt 0 mg/liter, trinexapac-ethyl 100 mg/liter) it was 5.0 cm. Besides, the “effect on main root length of rice cv. Cheniere” value in the assay on rice cv. Cheniere is “negative effect on main root length”.
